Values of other authors as cited in patent publication US10653626B2, “Powder for oral suspension containing lamotrigine” (Shanghai Aucta Pharmaceuticals Co., Ltd., priority 2016, dated 2020).

- Solubility in water: insoluble in water
SMILES: Nc1nnc(-c2cccc(Cl)c2Cl)c(N)n1 [Lamotrigine, 6-(2,3-dichlorophenyl)-1,2,4-triazine-3,5-diamine]
